{"source": "patent US6551774B1", "about": "“Diagnostic methods for conditions associated with elevated cellular levels of telomerase activity” (Board of Regents, The University of Texas System, priority 1992, dated 2003)", "key": {"[1]": {"system": "Tetrahymena cells", "assay": "Telomere length in vegetatively grown Tetrahymena by Southern blot", "type": "cell-based, Tetrahymena thermophila", "experimental": "For analysis of macronuclear DNA from cultures containing the nucleoside analog AZT (Sigma), or controls lacking analog, at various timepoints during vegetative divisions, cells from stationary stock cultures were inoculated into 25 ml thymine-deficient Iso-sensitest broth (‘Isobroth’, Oxoid USA) in 250 ml flasks. Cultures were incubated at 30° C. with shaking (100 rpm) for 48 hours. Cells were counted and plated at 1000 cells/1.5 ml in 24-well plates (Falcon) and grown at 30° C., without shaking, for 48 hours. 5 μl of these log phase cells were used to inoculate 1 ml cultures (Isobroth) containing varied concentrations of nucleoside analog. Thereafter, every 2-4 days cells were transferred, either 5 μl per well, or 1-3 μl using a multi-pronged replicator into fresh 1 ml broth containing AZT. Remaining cells were pelleted and stored at −80° C. until processed for DNA analysis.\nFor analysis of macronuclear DNA from vegetative cultures containing the nucleoside analogs Ara-G (Calbiochem), ddG (Calbiochem), or ddI (Calbiochem), or controls lacking analog, stock cultures were grown overnight in 2% PPYS as described. Cells were counted and plated at 100 cells/2 ml in 2% PPYS containing varied amounts of analog, 1% DMSO (Fisher) (as a control for ddG and Ara-G), or 2% PPYS alone. Cells were replica plated into fresh medium every 2-6 days, and remaining cells were pelleted and stored at −80° C. until processed for DNA analysis.\nFor analysis of macronuclear DNA from vegetative cultures containing d4T (Sigma) or control lacking the analog, stock cultures (SB210 VI) were grown overnight in Isobroth as described. Cells were then counted and duplicate cultures inoculated at 500 cells/5 ml Isobroth in 50 ml conical tubes, and grown at 30° C., shaking 80 rpm. 500-2000 cells were transfered to fresh broth every 2-4 days, and the remainder pelleted and stored at −80° C. until processed for DNA analysis.\nRestriction digests, agarose gel electrophoresis, transfer of DNA to Nytran filters (Schleicher and Schuell), and hybridization with ^32P-nick-trapplated or random-primed probes were carried out using standard procedures (Maniatis et.al. 1989). Telomere length was analyzed as described previously for Tetrahymena [Larson 50 Cell, 477, 1987].\nTelomere lengths in cells grown in the presence of the different analogs were monitored by Southern blot analysis of DNA samples extracted at a series of time points during the subculturings. The telomeres of cells grown vegetatively in 1 and 5 mM AZT in 2% PPYS medium were reproducibly shortened by up to an average of 170 base pairs compared with the control cultures grown in 2% PPYS in the absence of the drug (FIG. 21A and B). This shortening of telomeres occured in a concentration-dependent manner (FIG. 21B), with at least 50% of the maximal shortening effect occurring by 10 μM AZT, the lowest concentration tested."}, "[2]": {"system": "Tetrahymena cells", "assay": "Single-cell transfer cultures of Tetrahymena with AZT or Ara-G", "type": "cell-based, Tetrahymena thermophila", "experimental": "For analysis of vegetative growth and macronuclear DNA from single-cell cultures containing the nucleoside analogs AZT or Ara-G, SB210 (VI) cells were grown from stationary stock cultures overnight at 30° C. with shaking (100 rpm) in 50 ml 2% PPYS or Isobroth. Cells were counted and added to the appropriate medium plus analog (Ara-G to 1 mM or DMSO to 1% as control in 2% PPYS; AZT to 10 μm or 1 mM, or no addition as control in Isobroth) and plated in 96-well plates (Falcon), 100 μl per well at a density of 1 cell per well. 5 plates were prepared for each analog or control. Wells were scored for cell growth and plates were replica plated every 1-2 days (Ara-G and DMSO plates) or every 2-4 days (AZT and Isobroth control plates) to maintain approximate inoculation densities of 1-10 cells per well for each passage. Occasionally individual wells were passaged by hand (1 μl inoculated per well using a pipettor) into several blank wells, to expand the number of live wells per plate as single-cell cultures were lost over time due to low probability of being transferred at each passage. After passaging, cells were pooled, pelleted and stored at −80° C. until processed for DNA analysis.\nTo test whether we had missed such a subpopulation of cells, we carried out the same experiments on vegetatively dividing Tetrahymena cells in the presence and absence of drug, but in these experiments the subculturing was carried out by plating cells at an average of 1 to 10 cells per well in microtiter plate wells in the presence of 10 μM and 1 mM AZT, and 10 μM and 1 mM Ara-G. For each drug, cells were plated out in this manner for 30 consecutive days (90 to 150 cell generations) and 16 consecutive days (50 to 80 cell generations) respectively for the 10 μM and 1 mM drug concentrations. DNA was isolated at intervals from combined samplings of the wells for analysis of telomere length."}, "[3]": {"system": "lymphoma cell line JY 616", "assay": "Growth of cultured JY lymphoma cells with potential telomerase inhibitors", "type": "cell-based, human", "conditions": "50 μM; normal rate until week 3", "experimental": "The effect of the agents on telomerase activity in intact cells was then studied utilizing the lymphoma cell line JY 616 which were maintained in RPMI 1640 with […] Hepes, 10% FCS, and penicillin/streptomycin (Gibco). The cells were cultured in 6-well plates (Falcon) with 5.0 ML of medium per well in duplicate. Cells were passaged every 7-10 days which corresponded to 5-7 mean population doublings (MPD), and seeded at 3×10^4 cells per well into fresh medium containing analog or control. Cell viability was monitored prior to harvest utilizing trypan blue stain (Gibco) during counting with a hemocytometer. The average ratio of stained: unstained cells (dead:alive) was […]. The intactness of the DNA was measured on a parallel gel by observing its mobility in a gel prior to digestion by a restriction enzyme."}, "[4]": {"conditions": "1 mM in Isobroth, single cell transfers"}}}
{"compound": "Cc1cn([C@H]2C[C@H](N=[N+]=[N-])[C@@H](CO)O2)c(=O)[nH]c1=O", "note": "[AZT]", "values": [{"measurement": "fraction of the maximal telomere shortening effect", "setting": "[1]; 10 μM, the lowest concentration tested", "result": "at least 50%"}, {"measurement": "shortening of telomeres compared with control cultures", "setting": "[1]; 1 and 5 mM in 2% PPYS medium", "result": "≤ 170", "unit": "base pairs"}, {"measurement": "plating efficiency compared with control medium", "setting": "[2]; 10 μM AZT, 10 μM or 1 mM Ara-G, 1 to 10 cells per well", "result": "no changes in the plating efficiency"}, {"measurement": "mean length and size distribution of telomeric DNA of pooled fast cells", "setting": "[2]; 1 mM in Isobroth", "result": "indistinguishable from those of control cells grown without AZT"}, {"measurement": "telomeric DNA of pooled slow cells", "setting": "[2]; 1 mM in Isobroth", "result": "slight decrease in mean telomere length and heterogeneity"}, {"measurement": "growth rate of the fast growth class", "setting": "[2]; [4]", "result": "2 to 4", "unit": "cell doubling per day"}, {"measurement": "growth rate of the slow growth class", "setting": "[2]; [4]", "result": "0 to 1", "unit": "cell doubling per day"}, {"measurement": "cell growth", "setting": "[3]", "result": "ceased proliferating"}]}
